Experimental data published in patent publication US10696686B2, “Herbicidally active (alkynyl-phenyl)-substituted cyclic dione compounds and derivatives thereof” (Syngenta Limited, priority 2013, dated 2020).

Legend:
Assay type in all cases: in vivo
[1] = system: Zea mays (ZEAMX, corn, maize, e.g. volunteer corn); assay: Biological Example 1A glasshouse assay, post-emergence application; details: Zea mays, 312 h, post-emergence, 13 days after application, read-out: Percentage phytotoxicity ZEAMX
Protocol: (§1) Seeds of a variety of test plant species were sown in standard soil ** in pots. After cultivation for one day (pre-emergence) or after 8 days cultivation (post-emergence) under controlled conditions in a glasshouse (at 24/16° C., day/night; 14 hours light; 65% humidity), the plants were sprayed with an aqueous spray solution derived from the formulation of the technical active ingredient (the test herbicide) in acetone/water (50:50) solution containing 0.5% Tween 20 (polyoxyethylene sorbitan monolaurate, CAS Reg. No. 9005-64-5). The test plants were then grown on under controlled conditions in a glasshouse (at 24/16° C., day/night; 14 hours light; 65% humidity) and watered twice daily. 13 Days after application of the test herbicide, for pre- and post-emergence, the test was evaluated visually for percentage phytotoxicity to each plant (where 100%=total damage to plant; 0%=no damage to plant). Generally, each test herbicide is only tested on 1 plant per plant species for each application rate tested and for each application timing. ** The “standard soil” in Biological Example 1 is usually a “sand” or “sandy loam” type of soil.
(§2) Dicotyledonous weeds: ABUTH=Abutilon theophrasti; AMARE=Amaranthus retroflexus. Grassy monocotyledonous weeds: SETFA=Setaria faberi; ALOMY=Alopecurus myosuroides; ECHCG=Echinochloa crus-galli; ZEAMX=Zea mays (corn, maize, e.g. volunteer corn). For Compound A16, the grassy monocotyledonous weed LOLPE (Lolium perenne) was used in the test insterad of ALOMY.

Lolium perenne (LOLPE) [2] = assay: as above; details: 13 days after application
Protocol: as §1, §2

[3] = system: Amaranthus retroflexus (AMARE); assay: as above; details: 312 h, 13 days after application, read-out: Percentage phytotoxicity AMARE
Protocol: as §1, §2

[4] = system: Echinochloa crus-galli (ECHCG); assay: as above; details: 312 h, 13 days after application, read-out: Percentage phytotoxicity ECHCG
Protocol: as §1, §2

Setaria faberi (SETFA) [5] = assay: as above; details: Setaria faberi, 312 h, post-emergence, 13 days after application, read-out: Percentage phytotoxicity SETFA
Protocol: as §1, §2

[6] = system: Abutilon theophrasti (ABUTH); assay: as above; details: 312 h, 13 days after application, read-out: Percentage phytotoxicity ABUTH
Protocol: as §1, §2

[7] = system: grassy (in particular warm climate grassy) monocotyledonous weeds; assay: Post-emergence herbicidal activity, summary statements on Biological Examples 1 to 3; details: applied at about 250 g/ha post-emergence; Biological Examples 1 and 2
Protocol: as §1
Seeds of a variety of monocotyledonous and dicotyledonous test plants are sown in standard soil in pots. The plants are cultivated for one day (for pre-emergence) or for about 12 days (range=10-13 days) (for post-emergence) under controlled conditions in a glasshouse (warm climate species at 24/18° C., cool climate species at 20/16° C., both at day/night; 16 hours light; 65% humidity). An “instant formulation”, known as the “IF50”, containing 50 g/litre (i.e. 5% w/v) of the “technical” (i.e. unformulated) active ingredient is prepared by dissolving the active ingredient in a mixture of organic solvents and emulsifier, details of which are provided in the Table below. […]
The test plants are then grown on, in a glasshouse (greenhouse) under controlled conditions (at either 24/18° C. or 20/16° C. (day/night) as mentioned above; 16 hours light; 65% humidity) and are watered twice daily. Either 14 or 15 days after application of the herbicide (14 or 15 DAA) (for post-emergence), or 20 days after application of the herbicide (20 DAA) (for pre-emergence), the test plants are evaluated visually, and an assessed percentage phytotoxicity score is given for each herbicidal application on each plant species (where 100%=total damage to plant; 0%=no damage to plant). […]

[8] = system: Zea mays (ZEAMX, corn, maize, e.g. volunteer corn); assay: Biological Example 1B glasshouse assay, pre-emergence application; details: 250 g/ha, 13 days after application
Protocol: as §1, §2

Lolium perenne (LOLPE) [9] = assay: as above; details: 250 g/ha, 13 days after application
Protocol: as §1, §2

[10] = system: Amaranthus retroflexus (AMARE); assay: as above; details: 250 g/ha, 13 days after application
Protocol: as §1, §2

[11] = system: Echinochloa crus-galli (ECHCG); assay: as above; details: 250 g/ha, 13 days after application
Protocol: as §1, §2

Setaria faberi (SETFA) [12] = assay: as above; details: 250 g/ha, 13 days after application
Protocol: as §1, §2

[13] = system: Abutilon theophrasti (ABUTH); assay: as above; details: 250 g/ha, 13 days after application
Protocol: as §1, §2

In the case of CC#Cc1cc(F)c(C2C(=O)C3C(C2=O)[C@H]2CC[C@@H]3O2)c(OC)c1 (stereo partly shown) [Compound A16], the pest or weed control at 30 g/ha ([1]; 30 g/ha) is reported as 90%, the pest or weed control at 250 g/ha ([1]; 250 g/ha) is reported as 100% and the “Percentage phytotoxicity LOLPE” value (Lolium perenne (LOLPE) [2]; 30 g/ha) is reported as 70%. The “Percentage phytotoxicity LOLPE” value (Lolium perenne (LOLPE) [2]; 250 g/ha) was 90%, the pest or weed control at 30 g/ha ([3]; 30 g/ha) was 0% and the pest or weed control at 250 g/ha ([3]; 250 g/ha) was 10%. For the same compound, the pest or weed control at 30 g/ha ([4]; 30 g/ha) was 90%, the pest or weed control at 250 g/ha ([4]; 250 g/ha) was 100% and the pest or weed control at 30 g/ha (Setaria faberi (SETFA) [5]; 30 g/ha) was 70%. For the same compound, the pest or weed control at 250 g/ha (Setaria faberi (SETFA) [5]; 250 g/ha) was 90%, the pest or weed control at 30 g/ha ([6]; 30 g/ha) was 0% and the pest or weed control at 250 g/ha ([6]; 250 g/ha) was 70%. The “post-emergent herbicidal potency against grassy monocotyledonous weeds (in words)” value [7] was “potent post-emergent herbicides”, the “Percentage phytotoxicity ZEAMX” value [8] was 90% and the “Percentage phytotoxicity LOLPE” value (Lolium perenne (LOLPE) [9]) was 90%. The “Percentage phytotoxicity AMARE” value [10] was 30%, the “Percentage phytotoxicity ECHCG” value [11] was 90% and the “Percentage phytotoxicity SETFA” value (Setaria faberi (SETFA) [12]) was 70%. The “Percentage phytotoxicity ABUTH” value [13] was 0%.
